The subject of data set [1] is NZM mice. Nature of the data set: Antibody secreting cell Elispot (anti-Smith, anti-dsDNA ASC), spleens of NZM mice (Example 3). The class given is in vivo, mouse. Here is the method:
FIG. 49 depicts the frequency of anti-Smith antibody secreting cells in the spleens of NZM mice. NZM treated mice spleens were processed for splenocytes for ex vivo Elispot assays. Elispot wells were coated with 10 μg/mL of purified smith antigen or ovalbumin protein as a third party background control antigen. Fresh, whole splenocytes were added to each well at 500,000 cells per well in cell culture medium. Cells were incubated overnight at 37° C. Developed wells provided spots that were counted as frequency of ASCs per million splenocytes.
FIG. 50 depicts the frequency of anti-dsDNA antibody secreting cells in the spleens of NZM mice. NZM treated mice spleens were processed for splenocytes for ex vivo Elispot assays. Elispot wells were coated with 10 μg/mL of bovine dsDNA or ovalbumin protein as a third party background control antigen. Fresh, whole splenocytes were added to each well at 500,000 cells per well in cell culture medium. Cells were incubated overnight at 37° C. Developed wells provided spots that were counted as frequency of ASCs per million splenocytes.
B-cell Elispot components are ordered from MabTech (Nacka Strand, Sweden) and nitrocellulose IP filter plates are ordered from Millipore (Billerica, Mass.). Elispot wells are coated with either purified bovine thymus dsDNA (Sigma), purified bovine Smith antigen (GenWay) or boiled filtered purified chicken chromatin from lysed chicken red blood cells (Rockland, Gilbertsville, Pa.) at 10 μg/mL. Spleens are processed using glass homogenization (frosted slides). Dispersed cell contents are washed in sterile HBSS and RBCs lysed using 1×RBC lysis buffer (BioLegend, Cat #420301). Processed splenocytes are added to each well and are not stimulated with lipopolysaccharide (LPS) to avoid skewing of true ex vivo frequencies of antibody-secreting cell types (ASCs). Anti-mouse pan-IgG is used as a positive control for total IgG producing ASCs and is used to normalize results. Frequencies for each antigen are identified in an initial test phase for each model. For chromatin and total IgG only, 30,000 splenocytes are added to each well; for Smith antigen and dsDNA, 500,000 cells are added to each well. Different numbers of splenocytes are added for different antigens due to saturation limits of spot frequencies per well. B-cell Elispots are incubated overnight at 37° C. To develop each assay, secondary antibody is added to each well, incubated, washed and alkaline phosphatase strepavidin (Jackson ImmunoResearch, West Grove, Pa.) is used as the conjugate; substrate used is BCIP-NBT (MabTech, Cincinnati, Ohio). Plates are developed until spots are visible. All Elispot analyses are performed using an Immunospot C.T.L. scanner and Biospot software (Cellular Technology Ltd., Shaker Heights, Ohio). Results are shown as values from which media and cells only wells are subtracted. Some values are negative due to high background.

Data set [2] concerns NZM mice. In words: Renal histopathology blinded scores, NZM mice (Example 3). Type of data set: in vivo, mouse. Here is the method: FIG. 52 depicts renal histopathology scores from NZM mice (H&E stained paraffin wax embedded kidney tissues sections from 25 week old mice).
For histological analyses, the left kidney from each animal is removed and fixed in 10% buffered neutral formalin (EMD) for 48 hours on an orbital rocker at 25° C., then washed overnight with running dH2O and stored in 70% ethanol at 4° C. until ready to be processed. Kidney stains used for histological analyses included hematoxylin and eosin (H&E), Periodic Acid Schiff (PAS) and Trichrome stains (Wistar Institute, Philadelphia, Pa.). All 3 stained sections are used by the pathologist for scoring purposes. All histological scoring is performed blinded and by an independent board certified veterinary medical pathologist (Julie Engiles, VMD, DACVP). Multiple stains are used to determine score values. Images in FIG. 39 show worst affected area of section selected blindly by the pathologist.
Kidney IC-GN Scoring Method (Smith, Dong et al. 2007): […]

The subject of another data set is NZB/W F1 mice. To be noted: lupus prone NZB/W F1 mice; cited from earlier work.
The test system of the next data set is MRL/lpr mice. To be noted: 6 control animals, 5 on drug, p=0.03; cited from earlier work.
The conditions of data set [3]: in vivo; cited from earlier work.
The test system of data set [4] is NZM mice. In words: Survival, NZM mice, sc/ip dosing (Example 3). Type of data set: in vivo, mouse. To be noted: Groups 1, 2, and 4. As to the method:
FIG. 44 depicts survival of NZM mice across treatment groups for the study duration. NZM mice were treated as outlined in the legend. […] The overall percentage of surviving mice at the 91 day endpoint is listed in parentheses within the legend. * indicates p≦0.05.

Data set [5] relates to NZM mice. In words: Total urine protein (proteinuria), NZM mice (Example 3). Type of data set: in vivo, mouse. To be noted: Groups 1, 2, 4, and 5. Here is the method:
FIG. 45 depicts total urine protein (proteinuria) in NZM mice. Urine collected from NZM mice was analyzed for total protein content using a rat urinalysis kit.
Urine samples are acid precipitated for total protein analysis. For urine sample preparation, urine samples are centrifuged at 10,000 rpm for 3 minutes using a tabletop micro-centrifuge. 1-50 μL of urine supernatant is added in duplicate. PBS is added to adjust the volume to 50 μL total. For the turbidity assay: 25 μL of 0.1 N HCl is added into blank columns and 250 μL of 3% sulfosalicyclic acid into the test columns. The microplate is incubated for 10 minutes at RT and plates are read using an ELISA reader with single beam at 450 nm. A standard protein solution is prepared from normal mouse sera and is used as a standard for mouse urinary protein assay by turbidity. Standard preparation is as follows: 0, 5, 10, 15, 20, 30, 40, and 50 μL of a 4 mg/mL mouse sera standard protein solution as provided in the kit are added in duplicate into two columns. PBS is added to individual wells to adjust the final volume to 50 μL. Samples for which enough urine remains are used for Uristix® leukouria analysis. For the Uristix® strip assay, strips are laid out and labeled. Twenty microliters of urine are placed onto each test strip square and incubated for at least 30 seconds before the result is recorded. […]

On to `CC(C)C[C@H](NC(=O)[C@H](Cc1ccccc1)NC(=O)c1cnccn1)B(O)O` [bortezomib, reference compound], for which, in the data set on NZM mice [1] (Group 7, ip), the “anti-dsDNA ASC decrease vs vehicle” value is recorded as 64.7% and the “anti-smith ASC decrease vs vehicle” value turned out to be 46.3%. Also, in the data set on NZM mice [1] (Group 8, sc), the “anti-dsDNA ASC decrease vs vehicle” value was found to be 88.9% and the “anti-smith ASC decrease vs vehicle” value came to 82.4%. In addition, in the data set with NZM mice [2] (Group 7, ip), the “combined average renal histopathology blinded score decrease vs vehicle” value was 19.4%. Moreover, in the data set on NZM mice [2] (Group 8, sc), the “combined average renal histopathology blinded score decrease vs vehicle” value is given as 43.6%. Further, in the data set with NZB/W F1 mice, the proteinuria result is “significantly reduced proteinuria”, the renal pathology entry is given as “improved renal pathology” and the “survival compared to vehicle” value is on record as “markedly prolonged survival”. Besides, the survival result in the data set on MRL/lpr mice is listed as “significantly improved survival”. Besides, in data set [3], the serious side effects entry was “polyneuropathy, thrombocytopenia and gastrointestinal complications”.
Regarding `CC(C)C[C@H](NC(=O)[C@@H](NC(=O)c1cccc(-c2ccccc2)n1)[C@@H](C)O)B(O)O` [COMPOUND A, [(1R)-1-[[(2S,3R)-3-hydroxy-2-[6-phenyl-pyridine-2-carbonyl)amino]-1-oxobutyl]amino]-3-methylbutylboronic acid], the “survival relative to vehicle” value in the data set on NZM mice [4] was “significantly increased survival”. The “proteinuria compared to vehicle (Group 10) and bortezomib ip (Group 7)” value in the data set with NZM mice [5] was “reduced proteinuria”. In addition, the “anti-sdDNA ASC decrease vs vehicle” value in the data set on NZM mice [1] (Group 1 (regimen: Table 42)) is listed as 97.9%; in the data set with NZM mice [1] (Group 2 (regimen: Table 42)) it was 96.4%; in the data set on NZM mice [1] (Group 4 (regimen: Table 42)), 100.7%; with NZM mice [1] (Group 5 (regimen: Table 42)) it was 95.9%. Moreover, the “anti-smith ASC decrease vs vehicle” value with NZM mice [1] (Group 1 (regimen: Table 42)) worked out at 98.7%; with NZM mice [1] (Group 2 (regimen: Table 42)) it was 96.6%; with NZM mice [1] (Group 4 (regimen: Table 42)), 98.6%; with NZM mice [1] (Group 5 (regimen: Table 42)), 97.6%. Also, the “combined average renal histopathology blinded score decrease vs vehicle” value came to 53% in the data set on NZM mice [2] (Group 1 (regimen: Table 42)); 43.6% in the data set on NZM mice [2] (Group 2 (regimen: Table 42)); 18.9% in the data set with NZM mice [2] (Group 3 (regimen: Table 42)); 48.7% in the data set on NZM mice [2] (Group 4 (regimen: Table 42)); 40.5% in the data set on NZM mice [2] (Group 5 (regimen: Table 42)).

(Values after patent US9340559B2, “Proteasome inhibitor delanzomib for use in the treatment of lupus” (Cephalon, Inc., priority 2011, dated 2016).)
